What was measured:
Assay type in all cases: in vivo
Abutilon theophrasti [1] = experiment: greenhouse pre-emergence herbicidal test; conditions: 250 g/ha, scale 0 to 100
Procedure, shortened: (§1)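 Compounds suspended or emulsified in water were sprayed onto loamy sand (about 3.0% humus) right after sowing; pots were hooded until rooting. Damage was scored on a 0–100 scale (100 = no emergence or complete aerial destruction, 0 = normal growth) after 2 to 4 weeks.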

Setaria faberi = experiment: greenhouse pre-emergence herbicidal test; conditions: 250 g/ha, scale 0 to 100
Procedure, shortened: as §1

Echinocloa crus-galli [2] = experiment: greenhouse pre-emergence herbicidal test; conditions: 250 g/ha, scale 0 to 100
Procedure, shortened: (§2)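 Seeds sown in loamy sand (~3.0% humus); compounds suspended or emulsified in water, sprayed directly after sowing, pots covered until rooting. Kept at 10-25° C. or 20-35° C. by species for 2 to 4 weeks. Damage scored visually 0-100 (100 = no emergence or complete aerial destruction).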

Amaranthus retroflexus [3] = experiment: greenhouse pre-emergence herbicidal test; conditions: 250 g/ha, scale 0 to 100
Procedure, shortened: as §2

Setaria viridis = experiment: greenhouse post-emergence herbicidal test; conditions: 125 g/ha, scale 0 to 100
Excerpt: (§3) The culture containers used were plastic flowerpots containing loamy sand with approximately 3.0% of humus as the substrate. The seeds of the test plants were sown separately for each species.
(§4) For the post-emergence treatment, the test plants were first grown to a height of 3 to 15 cm, depending on the plant habit, and only then treated with the active ingredients which had been suspended or emulsified in water. For this purpose, the test plants were either sown directly and grown in the same containers, or they were first grown separately as seedlings and transplanted into the test containers a few days prior to treatment.
(§5) Depending on the species, the plants were kept at 10-25° C. or 20-35° C., respectively.
(§6) The test period extended over 2 to 4 weeks. During this time, the plants were tended, and their response to the individual treatments was evaluated.
(§7) Evaluation was carried out using a scale from 0 to 100. 100 means no emergence of the plants, or complete destruction of at least the aerial moieties, and 0 means no damage, or normal course of growth. A moderate herbicidal activity is given at values of at least 60, a good herbicidal activity is given at values of at least 70, and a very good herbicidal activity is given at values of at least 85.

Abutilon theophrasti [4] = experiment: greenhouse post-emergence herbicidal test; conditions: scale 0 to 100
Excerpt: as §3, §4, §5, §6, §7

Echinocloa crus-galli [5] = experiment: greenhouse post-emergence herbicidal test; conditions: 125 g/ha, scale 0 to 100
Excerpt: as §3, §4, §5, §6, §7

Lolium multiflorum = experiment: greenhouse pre-emergence herbicidal test; conditions: 250 g/ha, scale 0 to 100
Procedure, shortened: as §2

Alopercurus myosuroides = experiment: greenhouse pre-emergence herbicidal test; conditions: 250 g/ha, scale 0 to 100
Procedure, shortened: as §2

Amaranthus retroflexus [6] = experiment: greenhouse post-emergence herbicidal test; conditions: 250 g/ha, scale 0 to 100
Excerpt: as §3, §4, §5, §6, §7

Apera spica-venti = experiment: greenhouse pre-emergence herbicidal test; conditions: 250 g/ha, scale 0 to 100
Procedure, shortened: as §2

| SMILES | herbicidal activity (Abutilon theophrasti [1]) [%] | herbicidal activity (Setaria faberi) [%] | herbicidal activity (Echinocloa crus-galli [2]) [%] | herbicidal activity (Alopercurus myosuroides) [%] | also measured |
| --- | --- | --- | --- | --- | --- |
| CC(C)(F)c1nc(N)nc(Nc2c(F)cccc2OCc2ccsc2)n1 [Example 22] | 100 | 100 | 100 |  | herbicidal activity (Amaranthus retroflexus [3]): 100% |
| CC(C)(F)c1nc(N)nc(Nc2c(F)cccc2OCc2ccccc2[N+](=O)[O-])n1 [Example 28] |  |  |  |  | herbicidal activity (Setaria viridis): 75%; herbicidal activity (Abutilon theophrasti [4]; 125 g/ha): 75%; herbicidal activity (Echinocloa crus-galli [5]): 85% |
| Cc1ccccc1COc1cccc(F)c1Nc1nc(N)nc(C(C)(C)F)n1 [Example 30] | 100 | 100 | 100 |  | herbicidal activity (Amaranthus retroflexus [3]): 100% |
| CCC(F)c1nc(N)nc(Nc2c(F)cccc2OCc2ccccc2)n1 (stereo not drawn) [Example 35] | 100 | 100 | 100 |  | herbicidal activity (Amaranthus retroflexus [3]): 100% |
| Cc1ccc(COc2cccc(F)c2Nc2nc(N)nc(C(C)(C)F)n2)cc1F [Example 56] |  |  | 95 |  | herbicidal activity (Lolium multiflorum): 100% |
| CC(C)(F)c1nc(N)nc(Nc2c(Cl)cccc2OCc2ccccc2)n1 [Example 85] | 90 | 70 |  | 70 |  |
| Cc1cscc1COc1cccc(F)c1Nc1nc(N)nc(C(C)(C)F)n1 [Example 111] |  |  | 85 |  | herbicidal activity (Abutilon theophrasti [4]; 250 g/ha): 100%; herbicidal activity (Amaranthus retroflexus [6]): 100%; herbicidal activity (Apera spica-venti): 80% |
| CC(C)(F)c1nc(N)nc(Nc2c(F)cccc2OCc2cc(Cl)sc2Cl)n1 [Example 112] |  |  | 80 |  | herbicidal activity (Abutilon theophrasti [4]; 250 g/ha): 100%; herbicidal activity (Amaranthus retroflexus [6]): 100%; herbicidal activity (Apera spica-venti): 80% |
| CC(C)(F)c1nc(N)nc(Nc2c(F)cccc2OCc2ccsc2C#N)n1 [Example 121] |  |  |  |  | herbicidal activity (Abutilon theophrasti [4]; 250 g/ha): 100%; herbicidal activity (Amaranthus retroflexus [6]): 100%; herbicidal activity (Amaranthus retroflexus [3]): 80% |
| Cc1cc(COc2cccc(F)c2Nc2nc(N)nc(C(C)(C)F)n2)c(C)s1 [Example 125] |  |  | 100 |  | herbicidal activity (Apera spica-venti): 85% |
| COC(C)(C)c1nc(N)nc(Nc2c(F)cccc2OC(F)(F)c2cccc(F)c2)n1 [Example 131] | 90 | 90 |  |  | herbicidal activity (Amaranthus retroflexus [3]): 85% |
| CC(C)(F)c1nc(N)nc(Nc2c(F)cccc2OCc2cccc(OCC(F)(F)F)c2)n1 [Example 134] |  | 90 | 90 |  | herbicidal activity (Apera spica-venti): 95% |
| CC(C)(F)c1nc(N)nc(Nc2c(F)cccc2OCc2cccc(OC(F)(F)F)c2)n1 [Example 136] |  | 80 | 85 |  | herbicidal activity (Apera spica-venti): 80% |
| COc1cccc(COc2c(F)ccc(F)c2Nc2nc(N)nc(C(C)(C)F)n2)c1 [Example 139] | 100 | 100 | 100 |  | herbicidal activity (Amaranthus retroflexus [3]): 100% |
| CC(C)(F)c1nc(N)nc(Nc2c(F)c(F)cc(F)c2OCc2c(F)cccc2F)n1 [Example 165] | 100 |  | 100 | 100 |  |
| CC(C)(F)c1nc(N)nc(Nc2c(F)ccc(F)c2OCc2c(F)cccc2F)n1 [Example 167] | 100 | 100 |  | 100 |  |

| SMILES | herbicidal activity (Abutilon theophrasti [1]) [%] | herbicidal activity (Setaria faberi) [%] | herbicidal activity (Echinocloa crus-galli [2]) [%] | herbicidal activity (Alopercurus myosuroides) [%] | also measured |
| --- | --- | --- | --- | --- | --- |
| CC(C)(F)c1nc(N)nc(Nc2c(F)cc(F)c(F)c2OCc2ccccc2)n1 [Example 188] | 100 |  | 100 | 100 |  |
| Nc1nc(Nc2c(F)c(F)cc(F)c2OCc2ccccc2)nc(C2(F)CCCC2)n1 [Example 199] | 100 |  | 100 | 100 |  |
| CC(C)(F)c1nc(N)nc(Nc2c(F)c(F)cc(F)c2OCc2cccc(F)c2)n1 [Example 204] | 100 | 100 | 100 | 100 |  |
| CC(C)(F)c1nc(N)nc(Nc2c(F)c(F)cc(F)c2OCc2ccccc2Cl)n1 [Example 206] | 100 | 100 | 100 | 100 |  |
| COc1ccccc1COc1c(F)cc(F)c(F)c1Nc1nc(N)nc(C(C)(C)OC)n1 [Example 214] | 100 | 90 |  | 98 |  |
| CCc1ccc(COc2c(F)cc(F)c(F)c2Nc2nc(N)nc(C(C)(C)F)n2)cc1 [Example 216] | 100 | 100 |  | 98 |  |
| COC(C)(C)c1nc(N)nc(Nc2c(F)c(F)cc(F)c2OCc2ccccc2C)n1 [Example 226] | 90 |  | 100 | 100 |  |
| COC(C)(C)c1nc(N)nc(Nc2c(F)c(F)cc(F)c2OCc2ccc(C)cc2)n1 [Example 228] | 100 |  | 90 | 100 |  |
| Cc1ccccc1COc1c(F)cc(F)c(F)c1Nc1nc(N)nc(C(C)F)n1 (stereo not drawn) [Example 229] | 100 |  | 100 | 100 |  |
| Cc1ccc(COc2c(F)cc(F)c(F)c2Nc2nc(N)nc(C(C)F)n2)cc1 (stereo not drawn) [Example 231] | 98 |  | 98 | 98 |  |
| CC(C)CC(F)c1nc(N)nc(Nc2c(F)cccc2OCc2ccccc2)n1 (stereo not drawn) [Example 233] | 75 |  | 95 | 80 |  |
| CC(C)(F)c1nc(N)nc(Nc2c(F)c(F)cc(Cl)c2OCc2ccccc2)n1 [Example 234] | 100 |  | 100 | 90 |  |
| CC(C)(F)c1nc(N)nc(Nc2c(F)c(F)c(F)c(F)c2OCc2ccccc2)n1 [Example 236] | 100 |  | 100 | 95 |  |
| COC(C)c1nc(N)nc(Nc2c(F)c(F)cc(F)c2OCc2cccc(Cl)c2)n1 (stereo not drawn) [Example 244] | 85 | 75 |  |  | herbicidal activity (Amaranthus retroflexus [3]): 75% |
| COC(C)(C)c1nc(N)nc(Nc2c(F)c(F)cc(F)c2OCc2cccc(Cl)c2)n1 [Example 252] | 100 | 100 |  |  | herbicidal activity (Amaranthus retroflexus [3]): 95% |
